Source: paper doi:10.1101/2022.02.04.479214v1 (biorxiv, 2022)

Assays:
Test in all cases: CYP activity inhibition in microsomes
Assay type in all cases: biochemical
Details in all cases: microsomes with NADPH; direct inhibition
CYP2D6 = CYP2D6 (Homo sapiens, UniProt P10635)
CYP2C9 = CYP2C9 (Homo sapiens, UniProt P11712)
CYP3A4 = CYP3A4 (Homo sapiens, UniProt P08684)
CYP1A2 = target: T1, CYP1A2 (Homo sapiens, UniProt P05177)
T1 sequence (P05177 2-516): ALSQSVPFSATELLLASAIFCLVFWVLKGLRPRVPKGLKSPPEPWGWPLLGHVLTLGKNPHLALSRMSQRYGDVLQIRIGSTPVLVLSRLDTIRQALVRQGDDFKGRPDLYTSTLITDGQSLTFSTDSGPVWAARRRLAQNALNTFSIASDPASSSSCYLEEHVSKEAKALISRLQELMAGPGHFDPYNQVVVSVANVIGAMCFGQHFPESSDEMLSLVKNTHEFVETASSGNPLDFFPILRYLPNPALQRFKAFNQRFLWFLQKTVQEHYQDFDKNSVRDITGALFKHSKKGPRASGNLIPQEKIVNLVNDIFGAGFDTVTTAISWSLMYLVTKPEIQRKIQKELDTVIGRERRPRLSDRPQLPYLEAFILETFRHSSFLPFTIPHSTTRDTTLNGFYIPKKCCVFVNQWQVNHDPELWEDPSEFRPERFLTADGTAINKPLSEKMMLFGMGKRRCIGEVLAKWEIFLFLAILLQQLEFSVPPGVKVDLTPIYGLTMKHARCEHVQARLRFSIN

CYP2C19 = CYP2C19 (Homo sapiens, UniProt P33261)

Measured: IC50

CYP2C19, sequence (P33261 whole entry): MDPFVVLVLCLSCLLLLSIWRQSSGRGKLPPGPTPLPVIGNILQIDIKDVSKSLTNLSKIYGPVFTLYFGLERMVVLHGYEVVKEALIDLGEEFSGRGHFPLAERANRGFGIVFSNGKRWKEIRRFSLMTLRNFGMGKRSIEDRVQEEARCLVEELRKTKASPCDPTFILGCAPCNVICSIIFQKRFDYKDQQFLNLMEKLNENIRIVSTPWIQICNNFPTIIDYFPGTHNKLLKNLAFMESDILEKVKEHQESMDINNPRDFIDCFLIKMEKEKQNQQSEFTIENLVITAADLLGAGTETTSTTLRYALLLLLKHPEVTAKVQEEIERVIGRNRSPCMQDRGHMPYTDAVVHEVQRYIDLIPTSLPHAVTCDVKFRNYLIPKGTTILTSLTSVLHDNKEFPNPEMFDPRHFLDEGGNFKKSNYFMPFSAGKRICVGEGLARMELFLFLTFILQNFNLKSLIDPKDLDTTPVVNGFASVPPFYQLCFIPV
CYP3A4, sequence (P08684 2-503): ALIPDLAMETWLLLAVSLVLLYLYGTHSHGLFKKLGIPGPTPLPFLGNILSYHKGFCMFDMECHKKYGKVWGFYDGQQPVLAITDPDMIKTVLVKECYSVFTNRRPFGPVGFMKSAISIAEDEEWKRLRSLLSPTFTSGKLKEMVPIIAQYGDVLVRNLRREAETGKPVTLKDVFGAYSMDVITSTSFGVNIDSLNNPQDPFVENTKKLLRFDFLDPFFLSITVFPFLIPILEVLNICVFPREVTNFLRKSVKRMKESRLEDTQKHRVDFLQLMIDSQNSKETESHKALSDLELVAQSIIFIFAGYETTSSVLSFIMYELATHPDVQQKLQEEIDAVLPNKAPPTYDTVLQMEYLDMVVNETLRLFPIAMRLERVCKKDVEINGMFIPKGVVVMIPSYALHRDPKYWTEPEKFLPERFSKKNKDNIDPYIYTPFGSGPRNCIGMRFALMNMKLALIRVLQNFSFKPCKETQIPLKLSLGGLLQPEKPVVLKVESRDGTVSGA
CYP2C9, sequence (P11712 whole entry): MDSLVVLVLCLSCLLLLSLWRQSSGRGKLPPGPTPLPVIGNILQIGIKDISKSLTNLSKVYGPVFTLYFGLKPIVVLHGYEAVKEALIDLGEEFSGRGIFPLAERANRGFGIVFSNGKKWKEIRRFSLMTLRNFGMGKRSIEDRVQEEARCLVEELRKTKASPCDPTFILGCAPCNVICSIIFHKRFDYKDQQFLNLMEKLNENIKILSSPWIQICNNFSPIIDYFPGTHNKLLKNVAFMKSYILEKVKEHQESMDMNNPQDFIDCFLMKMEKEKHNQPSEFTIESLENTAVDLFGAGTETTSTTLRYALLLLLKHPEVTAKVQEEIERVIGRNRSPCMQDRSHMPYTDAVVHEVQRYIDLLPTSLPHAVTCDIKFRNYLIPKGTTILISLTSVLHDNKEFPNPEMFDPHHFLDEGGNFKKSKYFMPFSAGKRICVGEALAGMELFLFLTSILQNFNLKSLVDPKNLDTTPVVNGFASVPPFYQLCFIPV
CYP2D6, sequence (P10635 whole entry): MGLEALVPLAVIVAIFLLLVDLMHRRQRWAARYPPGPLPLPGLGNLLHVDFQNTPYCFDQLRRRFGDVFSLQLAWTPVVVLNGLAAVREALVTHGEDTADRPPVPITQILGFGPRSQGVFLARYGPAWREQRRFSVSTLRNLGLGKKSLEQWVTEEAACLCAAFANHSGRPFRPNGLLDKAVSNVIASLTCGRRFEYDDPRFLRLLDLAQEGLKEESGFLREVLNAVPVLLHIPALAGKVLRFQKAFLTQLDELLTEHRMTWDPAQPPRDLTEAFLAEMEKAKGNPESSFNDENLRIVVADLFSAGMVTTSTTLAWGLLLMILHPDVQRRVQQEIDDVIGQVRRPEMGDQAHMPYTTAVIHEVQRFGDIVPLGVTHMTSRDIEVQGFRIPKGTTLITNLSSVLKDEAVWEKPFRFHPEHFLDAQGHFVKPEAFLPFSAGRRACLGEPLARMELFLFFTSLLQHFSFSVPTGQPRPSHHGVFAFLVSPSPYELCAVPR

Cc1cccc(OC2CCN(Cc3cc(=O)[nH]c(=O)[nH]3)CC2)c1C [GSK2556286]
> 25 µM: CYP2D6 | CYP2C9 | CYP3A4 | CYP1A2 | CYP2C19
